Laboratory results from patent US11304916B2 (priority 2019, dated 2022).
“Also recorded” adds a separate entry of the source. Where two headings read alike, the source gives them in different places.

What was measured:
[1] = system: transport of STx2B to the Golgi apparatus; type: cell-based, human
[2] = system: pH of endolysosomal compartments; type: cell-based, human
STx2-induced cell death = type: cell-based, human
[3] = system: recruitment of retromer component Vps26 to early endosomes; type: cell-based, human
HeLa cells = conditions: 10 μM
[4] = system: transport of STx1 B-subunit (STx1B) to the Golgi; conditions: cited from earlier work
[5] = system: transport of STx2B to the Golgi apparatus; conditions: cited from earlier work
lethal STx1 toxicosis [6] = conditions: mouse, in vivo; cited from earlier work
STx1-induced cell death = type: cell-based, human
lethal STx2 toxicosis = conditions: mouse, in vivo
LC3-positive punctae = type: cell-based, human
lethal STx1 toxicosis [7] = conditions: mouse, in vivo
[8] = system: transport of STx1 B-subunit (STx1B) to the Golgi; type: cell-based, human

CO/C1=C\C(C)=C\[C@@H](C)[C@@H](O)[C@@H](C)C/C(C)=C/C=C/[C@H](OC)[C@@H]([C@@H](C)[C@@H](O)[C@H](C)[C@@]2(O)C[C@@H](O)[C@H](C)[C@@H](C(C)C)O2)OC1=O [bafilomycin A1]
STx2B transport after short treatment [1]: did not have an effect; also recorded: There were no differences between groups
Transport of STx2B to the Golgi apparatus [1]: robustly inhibited the transport of STx2B to the Golgi apparatus
Change in endolysosomal pH (Lysosensor signal) [2]: a similar effect was observed
Morphology of endolysosomal compartments [2]: morphological differences were apparent

OCCOc1ccc(/C(=C(/CCCl)c2ccccc2)c2ccccc2)cc1 [ospemifene]
Protection against STx2-induced cell death relative to tamoxifen (STx2-induced cell death): failed to protect all together
Transport of STx2B to the Golgi (data not shown) [1]: did not
Recruitment of Vps26 to early endosomes [3]: did not

CC/C(=C(\c1ccc(O)cc1)c1ccc(OCCN(C)C)cc1)c1ccccc1 [4-hydroxytamoxifen, (Z)-4-(1-(4-(2-(dimethylamino)ethoxy)phenyl)-2-phenylbut-1-en-1-yl)phenol]
Protection against STx2-induced cell death relative to tamoxifen (STx2-induced cell death): A lower level of protection

CC/C(=C(\c1ccc(O)cc1)c1ccc(OCCNC)cc1)c1ccccc1 [endoxifen, (Z)-4-(1-(4-(2-(methylamino)ethoxy)phenyl)-2-phenylbut-1-en-1-yl)phenol]
Protection against STx2-induced cell death relative to tamoxifen (STx2-induced cell death): substantially weaker than tamoxifen or 4-hydroxytamoxifen

CCN(CC)CCCC(C)Nc1ccnc2cc(Cl)ccc12 (stereo not drawn) [chloroquine]
Transport of STx2B to the Golgi apparatus [1]: inhibitors of STx2B transport

O=C(c1ccc(OCCN2CCCCC2)cc1)c1c(-c2ccc(O)cc2)sc2cc(O)ccc12 [raloxifene, (6-hydroxy-2-(4-hydroxyphenyl)benzo[b]thiophen-3-yl)(4-(2-(piperidin-1-yl)ethoxy)phenyl)methanone]
Protection against STx2-induced cell death relative to tamoxifen (STx2-induced cell death): provided as much protection as tamoxifen against STx2-induced cell death
Cytotoxicity / cell viability of compound by itself (HeLa cells): did not alter cell viability by themselves

[Mn+2] [manganese]
Early endosome-to-Golgi transport of STx1 (literature) [4]: blocks the early endosome-to-Golgi transport of STx1
Sensitivity of STx2 transport to manganese (literature) [5]: manganese-insensitive
Protection against lethal STx1-toxicosis (literature) (lethal STx1 toxicosis [6]): protects cells and mice against lethal STx1-toxicosis

CC/C(=C(\c1ccccc1)c1ccc(OCCN(C)C)cc1)c1ccccc1 [tamoxifen, (Z)-2-(4-(1,2-diphenyl-1-butenyl)phenoxy)-N,N-dimethylethan-1-amine]
Protection against STx1-induced cell death (STx1-induced cell death): ~50 fold
Protection against STx2 with additional oral tamoxifen after toxin (lethal STx2 toxicosis): A similar level of protection against STx2
Survival time versus vehicle, STx2 (lethal STx2 toxicosis): survived for significantly longer than those that received vehicle
Survival of STx2-treated mice (lethal STx2 toxicosis; ip): significantly improved the survival
Lowest tamoxifen dose at which protection was evident (STx2-induced cell death): 2.5 µM
Protection against STx2-induced cell death (STx2-induced cell death): ~200 fold
LC3-positive punctae (LC3-positive punctae): elevated
Health until end of experiment, STx1-group (lethal STx1 toxicosis [7]): a subset of tamoxifen-treated mice remained healthy until the end of the experiment
Survival of STx1-treated mice (lethal STx1 toxicosis [7]; ip): significantly improved the survival
Fate of STx2B in treated cells [1]: the toxin failed to traffic to the Golgi and instead was rerouted to Rab7-positive late endosomes and degraded
STx2B transport after short treatment [1]: did not have an effect; also recorded: There were no differences between groups
Transport of STx2B to the Golgi apparatus [1]: inhibitors of STx2B transport
Inhibitory effect on STx2B transport compared with chloroquine ([1]; 24 h): had a greater inhibitory effect
Transport of STx1B to the Golgi and STx1B degradation [8]: inhibited the transport of STx1 B-subunit (STx1B) to the Golgi and induced degradation of STx1B
Cytotoxicity / cell viability of compound by itself (HeLa cells): without inducing cytotoxicity
Positioning of early endosomes [3]: gained a perinuclear prominence
Recruitment of Vps26 to early endosomes ([3]; 10 μM): enhanced
Change in endolysosomal pH (Lysosensor signal) [2]: an increase evident at early time-points (30-60 min) but not 24 h after treatment
Morphology of endolysosomal compartments [2]: morphological differences were apparent

CN(C)CCOc1ccc(/C(=C(/CCCl)c2ccccc2)c2ccccc2)cc1 [toremifene, (Z)-2-(4-(4-chloro-1,2-diphenylbut-1-en-1-yl)phenoxy)-N,N-dimethylethan-1-amine]
Protection against STx2-induced cell death relative to tamoxifen (STx2-induced cell death): provided as much protection as tamoxifen against STx2-induced cell death
Transport of STx2B to the Golgi (data not shown) ([1]; 10 μM): blocked transport of STx2B to the Golgi
Cytotoxicity / cell viability of compound by itself (HeLa cells): did not alter cell viability by themselves
Recruitment of Vps26 to early endosomes ([3]; 10 μM): increased Vps26 levels on early endosomes at 24 h
Endolysosomal pH at 30 min (data not shown) ([2]; 10 μM, 30 min): increased endolysosomal pH at 30 min
